Legend:
[1] = Stability test at 30° C. at three pH-values (HPLC); type: physicochemical; conditions: for Stability: 30° C., 8 weeks, 0.2 mM, HPLC
Procedure: The stability of the compound of formula (Ia) was tested at 30° C. at three different pH-values.
The test ran over 8 weeks with the compound of formula (Ia) placed in temperature controlled ovens. Samples were taken according to the following scheme: Days 0, 3, 6, 10, 14, 21, and 28 followed by weeks 6 and 8. All samples were analyzed by HPLC. Reference samples for days 3, 6, 10, 14, 21, and 28 plus weeks 6 and 8 were kept at −20° C. and analyzed together with the samples at 30° C.
Each individual sample of the compound of formula (Ia) contained 18 μg in 200 μl buffer (0.2 mM). All samples were prepared in 1.5 ml HPLC vials at the same day. Samples for day 0 were immediately analyzed and all other samples placed in ovens. Reference samples were immediately frozen at −20° C.
One reference sample per pH-value was used. Samples from the oven were taken and reference samples were added after thawing. The set of samples at 30° with reference sample was grouped into the HPLC autosampler to minimize the time gap between HPLC-analysis within each set of samples. All samples were analyzed by double injections.
Samples were analyzed by the method shown below. The target peak was manually integrated and mean values of double injections were used to prepare graphs for assessment of the stability (see FIGS. 4 to 6).

[2] = Taste and spit assay phase II - assessment of fructose enhancing features; type: in vivo; conditions: 20 μM with fructose (4%) in 0.5% ethanol versus fructose (4%) only, 5 individuals, 10 ml
Procedure: The taste of a sample of compound of formula (Ia) with regard to sweetness and fructose enhancing features was assessed by using a panel of trained sensory evaluators experienced in the sweet taste estimation procedure. 5 individuals were asked to taste the quality of single samples of 10 ml volume. Panelists were asked to take a sample of the liquid to be assessed (20 μM test substance compound of formula (Ia) in 0.5% ethanol) into the mouth and after some time allowed for taste perception to spit the sample out completely. Subsequently, the panelists were asked to rinse their mouth well with water or black tea to reduce any potential carry over effects. The tasting of a sample could be repeated if required. In the next step the panelists were asked to answer questions in a pairwise comparison test to determine the enhancement of sweet taste of the test substance with fructose relative to fructose only. Again, 5 individuals were given samples of 10 ml volume. This time two samples were prepared for direct comparison regarding sweetness. One sample contained fructose (4%) in solvent (0.5% ethanol) and the other sample additionally contained 20 μM of the test substance compound of formula (Ia). Designation of the samples with A and B was randomized and decoded after the taste procedure. […]

[3] = Taste and spit assay phase I - qualitative assessment; type: in vivo; conditions: 20 μM in 0.5% ethanol, 10 ml samples, 5 individuals, ambient temperature
Procedure: The taste of a sample of compound of formula (Ia) with regard to sweetness and fructose enhancing features was assessed by using a panel of trained sensory evaluators experienced in the sweet taste estimation procedure. 5 individuals were asked to taste the quality of single samples of 10 ml volume. Panelists were asked to take a sample of the liquid to be assessed (20 μM test substance compound of formula (Ia) in 0.5% ethanol) into the mouth and after some time allowed for taste perception to spit the sample out completely. Subsequently, the panelists were asked to rinse their mouth well with water or black tea to reduce any potential carry over effects. The tasting of a sample could be repeated if required. In a first descriptive test 5 individuals were asked to taste the quality of single samples of 10 ml volume (maximum 3 subsequent samples). The samples were served at ambient temperature. The individuals of the taste panel were asked to answer the following questions with regard to the quality of taste: 1) does the sample taste sweet?, 2) is there another taste detectable (bitter, sour, salty, umami)?, 3) is there an off- or aftertaste?, 4) is there anything else remarkable about the perception of the sample?

With `CC(=O)N(O)CCCCCNC(=O)C(O)(CC(=O)O)CC(=O)NCCCN(O)C(C)=O` (stereo not shown) [compound of formula (Ia)] the Stability ([1]; pH=3.0 Na-Citrate buffer, FIG. 4) was “stable during 8 weeks at 30 °C at pH=3.0”, the Stability ([1]; pH=4.5 Na-Citrate buffer, FIG. 5) was “stable during 8 weeks at 30 °C at pH=4.5” and the Stability ([1]; pH=6.5 phosphate buffer, FIG. 6) was “stable during 8 weeks at 30 °C at pH=6.5”. For the same compound, the “Temperature and pH stability (overall)” value ([1]; summary of the test at 30° C., pH 3.0, 4.5, 6.5) was “excellent temperature and pH stability”, the “Sweetness in pairwise comparison with fructose only” value [2] was “All 5 panelists identified the sample containing 4% fructose with the compound of formula (Ia) as sweeter than the sample containing 4% fructose only” and the “Characteristic taste of the sample (sweet, bitter, sour, salty, umami)” value [3] was “No characteristic taste was identified”. The Off- or aftertaste [3] was “no off-taste was detected”.

From patent US20140010939A1, “Sweetness Enhancers, Sweetener Compositions, Methods of Making the Same and Consumables Containing the Same” (Nutrinova Nutrition Specialties & Food Ingredients GmbH, priority 2011, published 2014)
